Source: patent publication US4855086A, “Novel pesticides, preparation and use” (Burroughs Wellcome Co., priority 1982, dated 1989)
Where two headings read alike, the source gives them in different places.

Tests used:
[1] = system: fully engorged female B. microplus susceptible strain; assay: Cattle tick adult immersion test (Example F (ii), (iii)); assay type: in vivo, Boophilus microplus; settings: adults, 10 minutes immersion, 14 days
Method: The compound was supplied as a 100 mg/liter solution in Esso 200/[…]. Dilution with water gave the required concentrations. Groups of 20 fully engorged female B. microplus susceptible strain were placed in a mesh basket which was immersed in the test dilution for 10 minutes. After immersion the ticks were removed, dried and then fixed to double-sided adhesive tape which was itself affixed to white plastic boards. The boards holding the ticks were held at 24° C. and 85% RH for 14 days. Individual egg masses were scored from 0-4 for quality and quantity and the total score for each group was obtained. The scores were corrected for water control oviposition, plotted on log-probit paper and the % concentration inhibiting 50% and 99% of viable oviposition determined.

[2] = system: B. microplus Susceptible; assay: Larval tick immersion test, susceptible strain (Example F); assay type: in vivo, Boophilus microplus; settings: larvae
From the text: (§1) Larval ticks were immersed using a published method (Shaw, R. D., Cook, M. and Carson, R. E. (1968). J. Econ. Ent. 61, 1590). Mortality data are presented for B. microplus susceptible and pyrethroid resistant strain (Malchi).

[3] = system: female Musca domestica (WRL strain); assay: Topical application to houseflies with and without piperonyl butoxide pretreatment (Example A); settings: for percent knockdown: 6 μg applied, 1 hour; for mortality at 0.006 mg: Musca domestica, topical, 24 h
Method: Where pretreatment with a synergist was used, the test compound was applied 1 hour after application of the synergist (6 μg piperonyl butoxide (PB) per insect). Knockdown was assessed after 1 hour, and mortality after 24 hours.

[4] = system: female Aedes aegypti; assay: Application to adult mosquitoes with piperonyl butoxide (Example E); assay type: in vivo; settings: 2 (4 pb) μg applied
Method: Knockdown was assessed after 1 hour and mortality after 24 hours.

[5] = system: houseflies; assay: Potentiation by pyrethroids, spray chamber, S-bioallethrin (Example G (ii)); assay type: in vivo, housefly (Musca domestica); settings: mixture ratio 45:1
From the text: Solutions of the compounds were sprayed into a chamber and houseflies released into the chamber.

[6] = system: B. microplus pyrethroid resistant strain (Malchi); assay: Larval tick immersion test, pyrethroid resistant strain (Example F); assay type: in vivo, Boophilus microplus; settings: larvae
From the text: as §1

[7] = system: gamma-aminobutyric acid (GABA) release from insect synaptosomes; assay: Release of 3H-labelled GABA from insect synaptosomes (Example H); assay type: biochemical; settings: 1 = most potent of five compounds
From the text: Interference with gamma-aminobutyric acid (GABA) release from insect synaptosomes is thought to be important in the insecticidal action of the compounds of the invention. Using published procedures (E. G. Gray and V. P. Whittaker, Journal of Anatomy 96, 79-87 (1962); G. Levi, V. Gallo and M. Raiter, Neurochemical Research 5(3), 281-295 (1980)), compounds of Formula I were compared with related compounds outside the scope of the invention.
Arranged in decreasing order of potency (release of ^3 H-labelled GABA), the compounds were: […]

[8] = system: third instar larvae of Aedes aegypti; assay: Exposure of mosquito larvae to aqueous suspension with piperonyl butoxide (Example D); assay type: in vivo; settings: 2.5 (+12.5 pb) ppm; 18 hours
Method: Mortality was assessed after 18 hours.

[9] = system: Sitophilus granarius; assay type: in vivo; settings: 200 (+1000 pb) ppm; 6 days
[10] = system: Female houseflies (Musca domestica); assay: Potentiation by other unsaturated amides in houseflies (Example G (i)); assay type: in vivo; settings: 6 μg PB one hour earlier
Method: Female houseflies (Musca domestica) were treated with solutions of compounds of Formula I and a potential synergist both dissolved in butanone, the flies having been treated one hour earlier with 6 μg piperonyl butoxide (PB).
The dose required to prevent flight of half the flies 10 minutes after application of the compound (KD50) was determined and the factor of potentiation (FOP) was calculated by the Equation of the Harmonic Mean for mixtures of the compounds.

[11] = system: fully engorged female Boophilus microplus, susceptible strain; assay: Cattle tick injection test (Example F (i)); assay type: in vivo; settings: 14 days; for No. dead / No. laying viable eggs: 10 ticks
Method: The compound was supplied as a […] solution in DMSO:Acetone (1:1). Administration of the compound was by means of a microapplicator which was preset to deliver 0.2 μl of solution. The compound in solution was injected into fully engorged female Boophilus microplus, susceptible strain, at a site just lateral to the mouthparts at the rate of 10 μg/tick. Reducing the concentration reduced the dose delivered. After injection the ticks were maintained at 24° C. and 85% RH for 14 days. At this time the ticks were examined for the presence of viable eggs which gave the percent inhibition of reproduction (% IR). The number of dead ticks was also noted.

[12] = system: male Blattella germanica; assay: Exposure of cockroaches to deposit on glass with piperonyl butoxide (Example B); assay type: in vivo; settings: 700 (+700 pb) mg m^-2
Method: Knockdown was assessed after 10 and 60 minutes and mortality after 1 and 6 days.

[13] = 6 μg PB pretreatment 1 hour before
[14] = read-out: percent mortality, 6 μg applied, 6 μg PB pretreatment 1 hour before, 24 hours
[15] = read-out: percent mortality, 6 μg applied, synergist: none, 24 hours

CC(C)CNC(=O)/C=C/CC/C=C\C=C\c1ccccc1 [Example 9, N-isobutyl-9-phenyl-nona-2 (E),6(Z),8(E)-trienamide]
IR50 (% concentration inhibiting 50% of viable oviposition) [1]: 0.026% | IR99 (% concentration inhibiting 99% of viable oviposition) [1]: 0.1% | LC50 [1]: 0.1% | LC50 [2]: 0.00044% | percent knockdown [3, 13]: 100% | percent knockdown ([3]; synergist: none): 95% | mortality at 0.006 mg [3, 14]: 100% | mortality at 0.006 mg [3, 15]: 0% | % knockdown ([4]; 1 hour): 70% | % mortality ([4]; 24 hours): 80% | LC50 (concentration for death of half the flies) [5]: 1.8% | LC50 [6]: 0.00022% | rank in decreasing order of potency (release of ^3 H-labelled GABA) [7]: 3 | % mortality [8]: 100% | % mortality [9]: 100% | KD50 (dose required to prevent flight of half the flies 10 minutes after application) [10]: 8.4 μg/fly | No. dead ([11]; 1 μg injected): 0 | No. laying viable eggs ([11]; 1 μg injected): 8 | % IR (percent inhibition of reproduction) ([11]; 1 μg injected): 20% | No. dead ([11]; 5 μg injected): 1 | No. laying viable eggs ([11]; 5 μg injected): 3 | % IR (percent inhibition of reproduction) ([11]; 5 μg injected): 70% | No. dead ([11]; 10 μg injected): 3 | No. laying viable eggs ([11]; 10 μg injected): 1 | % IR (percent inhibition of reproduction) ([11]; 10 μg injected): 90% | mortality at 0.001 mg ([11]; Rhipicephalus microplus, 336 h, 1 μg injected, read-out: % Kill): 0% | mortality at 0.005 mg ([11]; Rhipicephalus microplus, 336 h, 5 μg injected, read-out: % Kill): 10% | mortality at 0.01 mg ([11]; Rhipicephalus microplus, 336 h, 10 μg injected, read-out: % Kill): 30% | % knockdown 10 mins [12]: 7% | % knockdown 60 mins [12]: 7% | % mortality 1 day [12]: 33% | % mortality 6 days [12]: 40%

CCCCOCCOCCOCc1cc2c(cc1CCC)OCO2 [PB, piperonyl butoxide, reference compound]
mortality at 0.006 mg [3]: 0% | knockdown ([3]; PB alone, 6 μg per fly): 0%

CC(C)CNC(=O)/C=C/CC/C=C\C=C\c1ccc2c(c1)OCO2 [reference compound]
rank in decreasing order of potency (release of ^3 H-labelled GABA) [7]: 5

CCCCC/C=C/C=C/C(=O)NCC(C)C [N--isobutyl-(2E,4E)-decadienamide, reference compound]
KD50 (dose required to prevent flight of half the flies 10 minutes after application) [10]: 77 μg/fly

CC(C)CNC(=O)/C=C/C=C/CC/C=C\C=C\c1cccc(C(F)(F)F)c1 [Example 10, N-isobutyl-11-(3'-trifluoromethylphenyl)-(2E,4E,8Z,10E)-undecatetrenamide]
rank in decreasing order of potency (release of ^3 H-labelled GABA) [7]: 1 | KD50 (dose required to prevent flight of half the flies 10 minutes after application) [10]: 5.6 μg/fly

CC(C)CNC(=O)/C=C/C=C/CC/C=C\C=C\c1ccc2c(c1)OCO2 [reference compound]
rank in decreasing order of potency (release of ^3 H-labelled GABA) [7]: 2

CC(C)CNC(=O)/C=C/CC/C=C\C=C\c1cccc(C(F)(F)F)c1
rank in decreasing order of potency (release of ^3 H-labelled GABA) [7]: 4

C=CCC1=C(C)[C@@H](OC(=O)[C@@H]2[C@@H](C=C(C)C)C2(C)C)CC1=O [S-bioallethrin, reference compound]
LC50 (concentration for death of half the flies) [5]: 0.05%

CC(C)CNC(=O)/C=C/CC/C=C\c1ccccc1 [Example 3, N-isobutyl-7-phenylhepta-2E,6Z-dienamide]
percent knockdown [3, 13]: 90% | percent knockdown ([3]; synergist: none): 5% | mortality at 0.006 mg [3, 14]: 95% | mortality at 0.006 mg [3, 15]: 2.5% | % mortality [8]: 100% | % mortality [9]: 100% | % knockdown 10 mins [12]: 13% | % knockdown 60 mins [12]: 20% | % mortality 1 day [12]: 20% | % mortality 6 days [12]: 20%
